pIC50: −log10 of the molar value.
Assays:
[1] = target: FGFR3 (Homo sapiens, UniProt P22607); details: J. Med. Chem. 2011, 54:7066-7083; cited from earlier work
[2] = tested on: RT112 bladder cancer cell line; details: J. Med. Chem. 2011, 54:7066-7083; cited from earlier work
[3] = Microsomal stability; type: in vitro ADME; details: human liver microsomes, based on sample taken at 0 minutes
[4] = tested on: AN3-CA, a uterine cancer cell line; assay: Inhibitory activity against cancer cell proliferation (Experimental Example 2); type: cell-based; details: Homo sapiens, Table 2
[5] = Microsomal stability; type: in vitro ADME; details: rat liver microsomes, based on sample taken at 0 minutes
[6] = Microsomal stability; type: in vitro ADME; details: mouse liver microsomes, based on sample taken at 0 minutes
[7] = target: CYP2D6 (Homo sapiens, UniProt P10635); assay: Inhibitory activity against CYP metabolic enzyme; type: in vitro ADME
Protocol: (§1) In order to determine whether or not there is a possibility that the compounds synthesized in Examples 1, 22, and 24 of the present invention can cause side effects of drug interaction, the rate (%) of inhibition against 5 major metabolic enzymes (CYP1A2, CYP2C9, CYP2C19, CYP2D6, and CYP3A4) among CYPs (cytochrome P450), which are enzymes involved in oxidative metabolism of drugs, was measured. […] That is, it can be seen that the compound of the present invention has a low possibility of causing side effects of drug interaction.

[8] = target: CYP3A4 (Homo sapiens, UniProt P08684); assay: Inhibitory activity against CYP metabolic enzyme; type: in vitro ADME
Protocol: as §1

[9] = target: CYP2C9 (Homo sapiens, UniProt P11712); assay: Inhibitory activity against CYP metabolic enzyme; type: in vitro ADME
Protocol: as §1

[10] = target: CYP2C19 (Homo sapiens, UniProt P33261); assay: Inhibitory activity against CYP metabolic enzyme; type: in vitro ADME
Protocol: as §1

[11] = target: T1, CYP1A2 (Homo sapiens, UniProt P05177); assay: Inhibitory activity against CYP metabolic enzyme; type: in vitro ADME
T1 sequence (P05177 1-516): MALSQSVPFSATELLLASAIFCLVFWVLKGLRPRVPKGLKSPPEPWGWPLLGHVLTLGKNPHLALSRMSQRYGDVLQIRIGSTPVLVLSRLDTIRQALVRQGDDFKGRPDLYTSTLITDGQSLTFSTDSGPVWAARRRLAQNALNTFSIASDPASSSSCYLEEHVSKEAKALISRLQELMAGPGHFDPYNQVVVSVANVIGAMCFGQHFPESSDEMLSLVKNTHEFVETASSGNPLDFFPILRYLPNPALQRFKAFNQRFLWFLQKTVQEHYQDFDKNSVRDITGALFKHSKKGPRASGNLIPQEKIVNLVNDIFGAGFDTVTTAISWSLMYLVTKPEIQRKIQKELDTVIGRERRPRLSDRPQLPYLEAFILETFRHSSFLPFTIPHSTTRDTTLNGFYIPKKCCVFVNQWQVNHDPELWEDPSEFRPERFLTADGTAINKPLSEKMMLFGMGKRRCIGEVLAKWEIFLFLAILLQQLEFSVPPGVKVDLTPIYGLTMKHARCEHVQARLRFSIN
Protocol: as §1

[12] = target: FGFR3 mutant (K650M) (Homo sapiens, UniProt P22607, K650M); assay: Pan-FGFR mutant enzymatic activity; type: biochemical; details: mutant enzyme
Protocol: (§2) The inhibitory activity against pan-FGFR mutants of the compounds synthesized in Examples 1, 8, 13, 22, and 24 was measured, the inhibitory activity on each of enzymatic activity and cellular activity was evaluated, and the results are shown in Tables 3 and 4 below.

[13] = target: FGFR3 mutant (K650E) (Homo sapiens, UniProt P22607, K650E); assay: Pan-FGFR mutant enzymatic activity; type: biochemical; details: mutant enzyme
Protocol: as §2

[14] = target: FGFR2 mutant (V564F) (Homo sapiens, UniProt P21802, V564F); assay: Pan-FGFR mutant enzymatic activity; type: biochemical; details: mutant enzyme
Protocol: as §2

[15] = target: FGFR3 mutant (V555M) (Homo sapiens, UniProt P22607, V555M); assay: Pan-FGFR mutant enzymatic activity; type: biochemical; details: mutant enzyme
Protocol: as §2

[16] = target: FGFR2 mutant (N549H) (Homo sapiens, UniProt P21802, N549H); assay: Pan-FGFR mutant enzymatic activity; type: biochemical; details: mutant enzyme
Protocol: as §2

[17] = Microsomal stability; type: in vitro ADME; details: dog liver microsomes, based on sample taken at 0 minutes
[18] = tested on: J82 (bladder cancer cell line); assay: Pan-FGFR mutant cellular activity; type: cell-based; details: Table 4
Protocol: as §2

[19] = tested on: AN3-CA; assay: Pan-FGFR mutant cellular activity; type: cell-based; details: Homo sapiens, mutant cell, Table 4, read-out: GI50, AN3-CA (breast cancer cell line)
Protocol: as §2

[20] = tested on: KMS-11 (myeloma cell line); assay: Pan-FGFR mutant cellular activity; type: cell-based; details: Homo sapiens, Table 4
Protocol: as §2

[21] = tested on: UMUC3 (bladder cancer cell line); assay: Pan-FGFR mutant cellular activity; type: cell-based; details: Homo sapiens, Table 4
Protocol: as §2

Sequence of CYP2C19 (P33261 whole entry): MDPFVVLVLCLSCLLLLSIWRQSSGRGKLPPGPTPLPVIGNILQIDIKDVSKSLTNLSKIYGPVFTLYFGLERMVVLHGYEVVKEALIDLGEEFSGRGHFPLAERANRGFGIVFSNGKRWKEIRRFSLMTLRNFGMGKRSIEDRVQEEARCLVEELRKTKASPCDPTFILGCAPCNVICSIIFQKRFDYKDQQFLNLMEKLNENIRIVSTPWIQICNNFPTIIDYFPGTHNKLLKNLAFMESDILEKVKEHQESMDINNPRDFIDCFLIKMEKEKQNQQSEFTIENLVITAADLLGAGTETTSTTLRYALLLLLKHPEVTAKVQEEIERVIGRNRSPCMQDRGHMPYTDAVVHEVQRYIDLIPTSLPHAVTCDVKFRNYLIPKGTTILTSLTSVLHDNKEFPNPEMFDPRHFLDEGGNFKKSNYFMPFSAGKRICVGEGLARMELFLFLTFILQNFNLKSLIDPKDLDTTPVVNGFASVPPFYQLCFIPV
Sequence of CYP2C9 (P11712 whole entry): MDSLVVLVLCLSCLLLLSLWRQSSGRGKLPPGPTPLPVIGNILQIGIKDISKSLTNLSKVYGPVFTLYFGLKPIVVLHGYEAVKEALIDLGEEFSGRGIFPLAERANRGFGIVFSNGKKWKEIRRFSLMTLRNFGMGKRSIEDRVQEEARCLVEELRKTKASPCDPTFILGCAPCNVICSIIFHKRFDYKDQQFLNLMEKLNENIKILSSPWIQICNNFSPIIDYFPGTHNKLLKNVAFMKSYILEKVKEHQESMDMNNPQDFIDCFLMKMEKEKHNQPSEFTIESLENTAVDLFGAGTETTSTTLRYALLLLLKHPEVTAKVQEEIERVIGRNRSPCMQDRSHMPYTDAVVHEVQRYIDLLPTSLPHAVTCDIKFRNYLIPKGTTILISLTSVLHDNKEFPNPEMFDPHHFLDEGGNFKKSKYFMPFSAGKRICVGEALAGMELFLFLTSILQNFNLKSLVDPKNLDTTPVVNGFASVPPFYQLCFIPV
Sequence of FGFR3 mutant (K650M) (P22607 23-806 K650M): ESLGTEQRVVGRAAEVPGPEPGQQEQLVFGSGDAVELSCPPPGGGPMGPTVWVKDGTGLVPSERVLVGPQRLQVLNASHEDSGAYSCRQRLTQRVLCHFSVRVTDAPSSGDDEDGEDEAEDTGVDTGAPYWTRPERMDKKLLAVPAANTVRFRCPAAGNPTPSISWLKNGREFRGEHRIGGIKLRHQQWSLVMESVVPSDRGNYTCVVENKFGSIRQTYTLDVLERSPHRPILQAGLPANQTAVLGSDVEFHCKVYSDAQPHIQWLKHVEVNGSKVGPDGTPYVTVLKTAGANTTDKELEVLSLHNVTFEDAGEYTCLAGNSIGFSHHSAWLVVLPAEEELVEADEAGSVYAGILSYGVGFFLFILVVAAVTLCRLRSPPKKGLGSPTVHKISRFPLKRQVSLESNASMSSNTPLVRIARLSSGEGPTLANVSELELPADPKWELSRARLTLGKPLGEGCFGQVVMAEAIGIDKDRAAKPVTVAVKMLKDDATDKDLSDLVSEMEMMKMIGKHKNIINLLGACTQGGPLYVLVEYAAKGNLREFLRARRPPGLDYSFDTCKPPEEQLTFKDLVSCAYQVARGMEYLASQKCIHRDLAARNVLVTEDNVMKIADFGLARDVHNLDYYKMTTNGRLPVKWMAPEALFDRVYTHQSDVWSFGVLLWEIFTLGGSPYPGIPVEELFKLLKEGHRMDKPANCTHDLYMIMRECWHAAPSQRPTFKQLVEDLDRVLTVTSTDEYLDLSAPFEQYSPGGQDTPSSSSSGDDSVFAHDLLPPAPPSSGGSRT
Sequence of CYP2D6 (P10635 whole entry): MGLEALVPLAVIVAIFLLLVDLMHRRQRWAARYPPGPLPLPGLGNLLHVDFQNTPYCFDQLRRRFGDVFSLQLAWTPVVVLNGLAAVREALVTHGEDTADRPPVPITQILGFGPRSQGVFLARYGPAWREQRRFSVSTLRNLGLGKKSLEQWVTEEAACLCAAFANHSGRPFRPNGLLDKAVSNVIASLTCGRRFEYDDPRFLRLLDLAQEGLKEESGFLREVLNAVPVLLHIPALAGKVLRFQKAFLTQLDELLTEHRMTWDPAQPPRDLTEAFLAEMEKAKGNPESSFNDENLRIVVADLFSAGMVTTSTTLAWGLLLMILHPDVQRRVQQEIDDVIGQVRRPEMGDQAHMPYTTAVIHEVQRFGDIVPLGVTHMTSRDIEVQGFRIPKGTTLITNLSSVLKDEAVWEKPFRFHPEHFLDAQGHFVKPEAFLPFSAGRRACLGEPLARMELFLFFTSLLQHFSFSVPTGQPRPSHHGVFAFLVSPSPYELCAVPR
Sequence of FGFR2 mutant (V564F) (P21802 22-821 V564F): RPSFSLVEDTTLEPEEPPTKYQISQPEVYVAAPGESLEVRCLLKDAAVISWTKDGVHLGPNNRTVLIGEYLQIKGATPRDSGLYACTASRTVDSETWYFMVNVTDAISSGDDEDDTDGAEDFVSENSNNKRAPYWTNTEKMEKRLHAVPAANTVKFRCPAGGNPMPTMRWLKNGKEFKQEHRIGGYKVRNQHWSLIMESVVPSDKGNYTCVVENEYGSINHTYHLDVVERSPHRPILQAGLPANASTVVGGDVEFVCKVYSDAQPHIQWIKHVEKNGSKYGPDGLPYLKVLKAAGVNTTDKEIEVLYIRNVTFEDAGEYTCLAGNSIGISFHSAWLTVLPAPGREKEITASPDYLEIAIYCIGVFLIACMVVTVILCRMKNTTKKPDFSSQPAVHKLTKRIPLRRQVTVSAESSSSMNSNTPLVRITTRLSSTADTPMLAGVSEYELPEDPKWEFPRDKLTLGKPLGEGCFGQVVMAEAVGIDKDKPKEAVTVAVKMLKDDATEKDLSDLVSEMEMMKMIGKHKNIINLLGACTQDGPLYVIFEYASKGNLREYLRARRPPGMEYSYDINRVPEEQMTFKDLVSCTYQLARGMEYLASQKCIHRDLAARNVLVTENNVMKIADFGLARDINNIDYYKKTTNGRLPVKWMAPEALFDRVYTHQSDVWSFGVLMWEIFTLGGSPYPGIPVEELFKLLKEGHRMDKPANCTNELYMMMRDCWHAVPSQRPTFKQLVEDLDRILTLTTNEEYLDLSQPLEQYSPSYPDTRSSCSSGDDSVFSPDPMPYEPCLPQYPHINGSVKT
Sequence of CYP3A4 (P08684 whole entry): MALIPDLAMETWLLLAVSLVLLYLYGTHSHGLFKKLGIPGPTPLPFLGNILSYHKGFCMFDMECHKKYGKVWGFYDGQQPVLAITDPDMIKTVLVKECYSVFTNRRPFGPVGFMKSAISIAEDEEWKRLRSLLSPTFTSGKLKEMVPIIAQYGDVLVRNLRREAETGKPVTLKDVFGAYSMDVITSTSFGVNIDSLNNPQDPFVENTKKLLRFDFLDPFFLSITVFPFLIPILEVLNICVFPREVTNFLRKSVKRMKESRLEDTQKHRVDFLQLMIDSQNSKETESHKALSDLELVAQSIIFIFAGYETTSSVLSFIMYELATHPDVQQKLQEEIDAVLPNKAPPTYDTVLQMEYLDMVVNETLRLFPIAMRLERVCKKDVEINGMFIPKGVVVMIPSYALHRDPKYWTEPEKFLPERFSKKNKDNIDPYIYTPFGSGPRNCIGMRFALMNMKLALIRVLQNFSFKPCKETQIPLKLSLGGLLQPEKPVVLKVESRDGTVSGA
Sequence of FGFR3 (P22607 23-806): as the sequence (P22607 23-806 K650M) above, with M628K counted along it
Sequence of FGFR3 mutant (V555M) (P22607 23-806 V555M): as the sequence (P22607 23-806 K650M) above, with V533M, M628K counted along it
Sequence of FGFR3 mutant (K650E) (P22607 23-806 K650E): as the sequence (P22607 23-806 K650M) above, with M628E counted along it
Sequence of FGFR2 mutant (N549H) (P21802 22-821 N549H): as the sequence (P21802 22-821 V564F) above, with N528H, F543V counted along it

SMILES: CCN1CCN(c2ccc(Nc3cc(N(C)C(=O)Nc4c(Cl)c(OC)cc(OC)c4Cl)ncn3)cc2)CC1 [3-(2,6-dichloro-3,5-dimethoxyphenyl)-1-6-[4-(4-ethyl-piperazin-1-yl)phenylamino]pyrimidine-4-yl-1-methyl urea]
- inhibitory activity against FGFR3 [1]: selective inhibitory activity
- anticancer activity against the RT112 bladder cancer cell line [2]: effective anticancer activity

SMILES: COc1cc(OC)c(Cl)c(Nc2ncccc2-c2ncnc(Nc3cnn(C4CCN(C(C)C)CC4)c3)n2)c1Cl [Example 22]
- remaining (%) after reaction with the microsome, Human [3]: 21.8%
- remaining (%) after reaction with the microsome, Human ([3]; listed as Compound No. 22): 21.8%
- GI50 [4]: < 1000 nM
- remaining (%) after reaction with the microsome, Rat [5]: 7.7%
- remaining (%) after reaction with the microsome, Rat ([5]; listed as Compound No. 22): 7.7%
- remaining (%) after reaction with the microsome, Mouse [6]: 11.5%
- remaining (%) after reaction with the microsome, Mouse ([6]; listed as Compound No. 22): 11.5%
- rate (%) of inhibition, CYP2D6 [7]: 81.0%
- rate (%) of inhibition, CYP3A4 [8]: 17.6%
- rate (%) of inhibition, CYP2C9 [9]: 79.1%
- rate (%) of inhibition, CYP2C19 [10]: 44.6%
- rate (%) of inhibition, CYP1A2 [11]: 75.9%
- pIC50 [12]: > 7.00
- pIC50 [13]: > 7.00
- pIC50 [14]: 6.00 to 7.00
- pIC50 [15]: > 7.00
- pIC50 [16]: > 7.00
- remaining (%) after reaction with the microsome, Dog [17]: 8.3%
- remaining (%) after reaction with the microsome, Dog ([17]; listed as Compound No. 22): 8.3%
- GI50 [18]: < 1000 nM
- GI50 [19]: < 1000 nM
- GI50 [20]: < 1000 nM
- GI50 [21]: < 1000 nM

Source: US12466812B2, “Pyridinyltriazine derivative having protein kinase inhibitory activity, and pharmaceutical composition for preventing, ameliorating, or treating cancer comprising same” (KOREA INSTITUTE OF SCIENCE AND TECHNOLOGY, priority 2019, dated 2025)
